“Also recorded” adds a separate entry of the source.
Tests used:
[1] = target: T1, dopamine D2S receptor co-expressed with hybrid Gαqi in HEK293T cells (Homo sapiens, UniProt P14416); assay: IP accumulation assay (IP-One HTRF), agonist / inverse agonist effect; assay type: cell-based; settings: for functional properties in IP accumulation assay (in words): D2S receptors; for Emax: HEK-293T, relative to full effect of quinpirole (100%) and buffer (0%); for EC50: IP accumulation, ± SEM, 3-8 experiments, negative Emax = inverse agonist effect
T1 construct: expressed in transfected cells; host or cells: HEK-293T cells, transient co-transfection
T1 sequence (P14416 1-414 isoform P14416-2): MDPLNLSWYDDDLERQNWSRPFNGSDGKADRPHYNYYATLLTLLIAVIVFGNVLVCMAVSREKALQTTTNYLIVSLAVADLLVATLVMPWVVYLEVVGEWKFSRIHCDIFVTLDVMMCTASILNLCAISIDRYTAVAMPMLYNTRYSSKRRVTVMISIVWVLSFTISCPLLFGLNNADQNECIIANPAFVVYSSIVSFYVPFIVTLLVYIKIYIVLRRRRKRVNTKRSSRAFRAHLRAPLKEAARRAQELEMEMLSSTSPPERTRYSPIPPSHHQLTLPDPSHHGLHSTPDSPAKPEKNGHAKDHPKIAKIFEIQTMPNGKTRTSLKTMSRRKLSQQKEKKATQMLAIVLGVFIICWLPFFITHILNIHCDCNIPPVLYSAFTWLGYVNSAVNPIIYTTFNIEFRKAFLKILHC

[2] = Compound stability and photolysis in aqueous buffer monitored by HPLC; assay type: physicochemical; settings: for behaviour upon illumination with λp = 365 nm (in words): aqueous buffer, LED 365 nm, HPLC; for stability in the absence of light (in words): dark, storage and solution, HPLC/LCMS; for remaining fraction of the initial concentration: incubation in aqueous buffer at ambient light for 1 h
Protocol: All measurements were performed in aqueous buffer solution. Compound stability and photolysis was monitored by HPLC. […] Excitation of NB- and DMNB-type cages to trigger photolysis is usually performed with light of 300–400 nm. This absorption profile may limit the wavelength range for cage photolysis, as simultaneous excitation of the core pharmacophore may trigger photolytic degradation of the desired product. We performed photolysis experiments using a near UV light-emitting diode (LED) light source with a peak wavelength of λp = 365 nm and a spectrum half width of Δλ = 9 nm.
No unspecific degradation of the pharmacophore was observed, resulting in constant concentration of the desired product. […] The exposure to ambient light for longer time led to partial photolytic degradation. After incubation in aqueous buffer at ambient light for 1 h, we detected remaining 51% and 62% of the initial concentrations of 4 (MG307) and 5, respectively.
For compound characterization, UV/Vis absorption spectra of samples with c = 0.1 mM in methanol were measured on an Analytik Jena Specord 200 Plus spectrometer (λ = 210–400 nm). Irradiation experiments to trigger photolysis were performed in open HPLC glass vials using a LED (λ = 365 nm, 4.5 V, 0.7 A) to irradiate the samples from top. An aqueous buffer solution served as solvent (50 mM Tris, 1 mM EDTA, 50 mM MgCl2, 100 µg/ml bacitracin, 5 µg/ml soybean trypsin inhibitor), with initial sample concentrations of […] and sample volumes of 100 µl. Photolysis was monitored by HPLC as specified before (eluent system 1). […] Unless specified differently, all experiments were performed in triplicate.

[3] = Quantum yield determination of uncaging (365 nm LED); assay type: physicochemical; settings: for quantum yield φ for photolytic liberation of dechloroeticlopride: 365 nm; for quantum yield ϕ: 0.1 mM in aqueous buffer; for quantum yield ϕ / yield of liberated dechloroeticlopride: 365 nm LED
Protocol: Quantum yield determination. Quantum yields were determined in the following setup: translation stages (horizontal and vertical): Thorlabs DT 25/M or DT S25/M; photographic lens with f = 50 mm; magnetic stirrer: Faulhaber motor (1524B024S R) with 14:1 gear (15A); PS19Q power sensor from Coherent; PowerMax software; adjustable power supply “Basetech BT-153 0-15 V/DC 0-3 A 45 W” [2].
Measurements were performed in a covered apparatus to minimize the influence of ambient light. A 10 mm Hellma® quartz fluorescence cuvette with solvent (aqueous buffer solution, 2 ml) and a stirring bar was placed in the beam of a 365 nm LED and the transmitted power (Pref = 4.40 mW) was measured by a calibrated photodiode horizontal to the cuvette. The content of the cuvette was changed to a 0.1 mM solution of the respective caged compound in aqueous buffer (2 ml) with a stirring bar. The transmitted power was measured analogously to the blank solution. The sample was further irradiated and the transmitted power as well as the respective yield of liberated benzamide dechloroeticlopride was recorded after different times. The quantum yield was then calculated with the following […]
ϕ = N௉ = c௉ ∙ V ∙N஺ ∙ h ∙c
ϕ = quantum yield h = Planck constant
N௉ = number of product molecules formed c = speed of light
N௉௛.௔௕௦. = number of absorbed photons P௔௕௦. = radiant power absorbed
c௉ = product concentration ∆t = irradiation time
V = sample volume λ = irradiation wavelength […]
entry compound irradiation time Pabs. yield ϕ

[4] = target: T2, D2S receptor (HEK293T cells co-transfected with D2S and Gαqi) (Homo sapiens, UniProt P14416); assay: Photoactivation by direct irradiation of the cellular test system, quinpirole mediated IP accumulation; assay type: cell-based; settings: buffer and compound irradiated at 365 nm for 10 or 20 sec
T2 construct: expressed in transfected cells; host or cells: HEK-293T cells, transient co-transfection
T2 sequence (P14416 1-414 isoform P14416-2): as above
Text: (§1) […]. Mean curves ± SEM of 4–9 individual curves each done in triplicates. […]. Mean curves from 3–4 experiments each done in duplicate. […]. While 4 (MG307) (green bars) is completely released after 10 sec, the uncaging of 5 (red bars) needs 20 sec. […]. Mean bars ± SEM derived from 3–11 individual experiments each done in quintuplicates. Irradiation with a solution of test compound before addition to the cellular test system. […]. Means ± SEM from 6 experiments in quintuplicates.
(§2) […]. Actually, we observed an onset of a strong inverse agonist effect on quinpirole-induced IP accumulation after irradiation of the nitrobenzyl-caged compound 4 (MG307). […] […]. […] To complement uncaging of the test compounds by irradiation of the test compounds before addition to receptor by a biologically more significant experiment, we investigated whether uncaging can also be accomplished directly in the cellular system. […] In fact, quinpirole-promoted IP accumulation was substantially attenuated after irradiation for 10 or 20 sec. […] […]. […] […].
HEK293T cells were transiently co-transfected with D2S and Gαqi. Solutions of the test compounds were irradiated at λ = 365 nm using the same LED as for the photochemistry experiments (see above) for 2, 5, 10 or 20 sec and the test compound was added to the cell system immediately after illumination. […]. Accumulation of IP was determined as described above. […]. […]

[5] = target: T1, dopamine D2S receptor co-expressed with hybrid Gαqi in HEK293T cells; assay: IP accumulation assay (IP-One HTRF), inhibition of 10 nM quinpirole; assay type: cell-based; settings: for Emax: HEK-293T, in presence of 10 nM quinpirole, relative to quinpirole (100%) and buffer (0%), read-out: inhibitory effect Emax; for IC50: blocking of the agonist effect of 10 nM quinpirole, ± SEM, 4-6 experiments, read-out: inhibitory effect IC50
[6] = target: T2, D2S receptor (HEK293T cells co-transfected with D2S and Gαqi); assay: Illumination experiment: test compound solution irradiated at 365 nm before addition to cells, quinpirole stimulated IP accumulation; assay type: cell-based; settings: for irradiation time after which no quinpirole activity could be observed / agonist effect of quinpirole remaining after 2 seconds of irradiation: 50 nM caged compound, 365 nm; for irradiation time for complete release (uncaging) of dechloroeticlopride: 50 nM, irradiation at 365 nm, solution irradiated before addition to cells
Text: as §1, §2
HEK293T cells were transiently co-transfected with D2S and Gαqi. Solutions of the test compounds were irradiated at λ = 365 nm using the same LED as for the photochemistry experiments (see above) for 2, 5, 10 or 20 sec and the test compound was added to the cell system immediately after illumination. […]. Accumulation of IP was determined as described above. […]. Basal activity (buffer) was set as 0%. As a control, quinpirole was irradiated for 20 sec without observing any difference to the effect of the untreated analog. […]. All irradiation experiments were carried out in the dark or under dim light.

[7] = target: human dopamine receptor subtype D3 (Homo sapiens, UniProt P35462); assay: Radioligand displacement, [3H]spiperone, CHO cell membranes; assay type: binding; settings: mean ± SEM of 4-9 experiments, compounds 1, 2, 3: ± SD of two experiments
Sequence of human dopamine receptor subtype D3 (P35462 whole entry): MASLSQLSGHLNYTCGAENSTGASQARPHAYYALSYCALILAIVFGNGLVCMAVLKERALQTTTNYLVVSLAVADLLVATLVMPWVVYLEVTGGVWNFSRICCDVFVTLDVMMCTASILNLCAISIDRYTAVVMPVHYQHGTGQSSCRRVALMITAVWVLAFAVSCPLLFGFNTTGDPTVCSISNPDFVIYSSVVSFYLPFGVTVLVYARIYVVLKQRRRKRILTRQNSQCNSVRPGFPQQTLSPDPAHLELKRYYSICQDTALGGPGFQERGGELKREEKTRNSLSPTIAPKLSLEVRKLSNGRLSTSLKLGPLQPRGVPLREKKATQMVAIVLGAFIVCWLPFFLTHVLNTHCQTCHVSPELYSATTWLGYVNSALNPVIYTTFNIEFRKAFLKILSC

[8] = target: human dopamine receptor subtype D2L (Homo sapiens, UniProt P14416); assay: as above; assay type: binding; settings: [3H]spiperone; mean ± SEM of 4-9 experiments; compounds 1, 2, 3: ± SD of two experiments; read-out: Ki value D2L
Sequence of human dopamine receptor subtype D2L (P14416 whole entry): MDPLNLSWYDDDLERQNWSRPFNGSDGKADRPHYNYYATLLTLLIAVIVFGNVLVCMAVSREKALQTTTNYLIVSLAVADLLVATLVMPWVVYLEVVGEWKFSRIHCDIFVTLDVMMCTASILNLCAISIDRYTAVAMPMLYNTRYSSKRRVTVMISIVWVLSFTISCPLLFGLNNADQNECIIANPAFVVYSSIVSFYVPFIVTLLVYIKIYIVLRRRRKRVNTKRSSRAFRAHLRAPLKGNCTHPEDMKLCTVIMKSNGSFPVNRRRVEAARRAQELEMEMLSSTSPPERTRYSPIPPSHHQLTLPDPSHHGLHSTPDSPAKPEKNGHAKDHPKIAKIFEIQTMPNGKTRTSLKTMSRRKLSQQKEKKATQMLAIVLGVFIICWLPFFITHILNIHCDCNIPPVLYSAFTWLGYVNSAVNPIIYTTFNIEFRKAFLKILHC

[9] = target: human dopamine receptor subtype D2S (Homo sapiens, UniProt P14416); assay: as above; assay type: binding; settings: [3H]spiperone; mean ± SEM of 4-9 experiments; compounds 1, 2, 3: ± SD of two experiments; read-out: Ki value D2S
Sequence of human dopamine receptor subtype D2S (P14416 1-414 isoform P14416-2): as the sequence (P14416 1-414 isoform P14416-2) above

Row | Compound | functional properties in IP accumulation assay (in words) [1] | Emax [1] [%] | EC50 [1] [nM] | behaviour upon illumination with λp = 365 nm (in words) [2] | stability in the absence of light (in words) [2] | remaining fraction of the initial concentration [2] [%] | quantum yield φ for photolytic liberation of dechloroeticlopride [3] [%] | quantum yield ϕ ([3]; irradiation time 10 min) [%] | yield of liberated dechloroeticlopride ([3]; irradiation time 10 min) [%] | quantum yield ϕ ([3]; irradiation time 30 min) [%] | yield of liberated dechloroeticlopride ([3]; irradiation time 30 min) [%] | remaining D2S promoted signalling (IP accumulation) after irradiation in the cellular system [4] | Emax [5] [%] | IC50 [5] [nM] | irradiation time after which no quinpirole activity could be observed ([6]; 10 nM quinpirole) [s] | agonist effect of quinpirole remaining after 2 seconds of irradiation ([6]; 10 nM quinpirole) | irradiation time for complete release (uncaging) of dechloroeticlopride [6] [s] | Ki [7] [nM] | Ki [8] [nM] | Ki [9] [nM] | further results
1 | CCc1ccc(OC)c(C(=O)NC[C@@H]2CCCN2CC)c1OCc1ccccc1[N+](=O)[O-] [compound 4, (S)-3-Ethyl-N-[(1-ethylpyrrolidin-2-yl)methyl]-6-methoxy-2-[(2-nitrobenzyl)oxy]benzamide] | inverse agonist properties were observed as well, but potency was low | -21 ± 3.3 | 220 ± 65 | fast conversion to dechloroeticlopride within a few seconds | stable under storage conditions and in solution for at least two days | 51 | 0.5 | 2.9 | 11 | 1.2 | 16 | < 5% | -29 ± 5.6 | 850 ± 210 | 10 | less than 30% | 10 | 200 ± 62 | 210 ± 18 | 220 ± 66 | behaviour upon illumination with λp = 365 nm (in words) ([2]; listed as 4 (MG307)): clean photolysis
2 | CCc1ccc(OC)c(C(=O)NC[C@@H]2CCCN2CC)c1OCc1cc(OC)c(OC)cc1[N+](=O)[O-] [compound 5] | inverse agonist properties were observed as well, but potency was low | -21 ± 5.5 | 280 ± 120 | fast conversion to dechloroeticlopride within a few seconds; also recorded: clean photolysis | stable under storage conditions and in solution for at least two days | 62 | 2.1 | 0.7 | 17 | 0.3 | 22 | about 35% | -28 ± 4.6 | 990 ± 230 | 20 | less than 30% | 20 | 140 ± 33 | 350 ± 47 | 160 ± 35 | –
3 | CCc1ccc(OC)c(C(=O)NC[C@@H]2CCCN2CC)c1O [dechloroeticlopride, (S)-3-Ethyl-N-[(1-ethylpyrrolidin-2-yl)methyl]-2-hydroxy-6-methoxybenzamide, reference compound] | specific antagonist / inverse agonist | -17 ± 2.5 | 5.2 ± 0.8 | more photostable; also recorded: no significant decomposition | – | – | – | – | – | – | – | – | -20 ± 2.1 | 9.6 | – | – | – | – | 2.4 ± 0.44 | 1.2 ± 0.21 | effect of irradiation at 365 nm for 20 sec on the compound's effect on IP accumulation (in words) ([6]; controls, 10 nM quinpirole): does not affect

— PMC6972920, “Structure-based development of caged dopamine D2/D3 receptor antagonists” (Scientific Reports, 2020)
